Assay results from US11413264B2, “Carbamoyl phenylalaninol analogs and uses thereof” (Jazz Pharmaceuticals Ireland Limited, priority 2017, dated 2022).
Counter-ions that a name gives are not always drawn. Like-named read-outs stand apart in the source and are kept apart here.

Experiments:
[1] = target: T1, alpha2A adrenergic receptor (Alpha2A) (Homo sapiens, UniProt P08913); assay: Competitive radioligand binding assay, α2A (antagonist radioligand); settings: compound at 10 μM
T1 construct: expressed in transfected cells; host or cells: CHO cells (membrane fractions)
T1 sequence (P08913 1-465): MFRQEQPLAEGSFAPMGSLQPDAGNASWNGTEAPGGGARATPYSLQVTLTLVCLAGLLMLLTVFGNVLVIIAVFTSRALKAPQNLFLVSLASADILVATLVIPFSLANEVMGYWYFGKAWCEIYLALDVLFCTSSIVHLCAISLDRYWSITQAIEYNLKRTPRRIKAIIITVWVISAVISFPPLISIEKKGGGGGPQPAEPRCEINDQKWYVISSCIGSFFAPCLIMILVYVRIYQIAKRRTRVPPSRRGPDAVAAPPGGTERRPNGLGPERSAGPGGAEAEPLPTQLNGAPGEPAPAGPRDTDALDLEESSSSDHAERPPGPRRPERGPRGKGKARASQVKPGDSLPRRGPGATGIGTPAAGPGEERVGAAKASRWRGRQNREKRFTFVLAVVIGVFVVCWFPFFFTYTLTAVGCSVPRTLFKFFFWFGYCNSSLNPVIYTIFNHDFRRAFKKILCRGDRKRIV
Procedure: (§1) Compounds of the invention were tested for pharmacological activity in comparison to APC. Eight binding assays were carried out to provide a binding profile for each compound, including binding to dopamine transporter (DAT), norepinephrine transporter (NET), serotonin (5-HT) transporter (SERT), alpha2A adrenergic receptor (Alpha2A), alpha2C adrenergic receptor (Alpha2C), D2S dopamine receptor (D2S), D2L dopamine receptor (D2L), and vesicular monoamine transporter (VMAT2). Competitive binding assays using a radiolabeled ligand were carried out with each compound at 10 μM. The radioligand for each target was as follows: DAT—BTCP, NET—nisoxetine, SERT—imipramine, Alpha2A—yohimbine, Alpha2C—yohimbine, D2S—7-OH-DPAT, D2L—methylspiperone, VMAT2—tetrabenazine. The source of the receptors and transporters were prepared cell membrane fractions.

[2] = target: T2, dopamine transporter (DAT) (Homo sapiens, UniProt Q01959); assay: Competitive radioligand binding assay, dopamine transporter (antagonist radioligand); settings: compound at 10 μM; for binding to the dopamine transporter (in words): summary
T2 construct: expressed in transfected cells; host or cells: CHO cells (membrane fractions)
Procedure: as §1

[3] = target: T3, D2L dopamine receptor (D2L) (Homo sapiens, UniProt P14416); assay: Competitive radioligand binding assay, D2L (antagonist radioligand); settings: compound at 10 μM
T3 construct: expressed in transfected cells; host or cells: HEK-293 cells (membrane fractions)
Procedure: as §1

[4] = target: T4, vesicular monoamine transporter (VMAT2) (Rattus norvegicus, UniProt Q01827); assay: Competitive radioligand binding assay, VMAT2 transporter (antagonist radioligand); settings: compound at 10 μM
T4 construct: Rat brain; from tissue; host or cells: rat brain minus cerebellum, membrane fraction
Procedure: as §1

[5] = target: T5, norepinephrine transporter (NET) (Homo sapiens, UniProt P23975); assay: Competitive radioligand binding assay, norepinephrine transporter (antagonist radioligand); settings: compound at 10 μM
T5 construct: expressed in transfected cells; host or cells: CHO cells (membrane fractions)
Procedure: as §1

[6] = target: T6, D2S dopamine receptor (D2S) (Homo sapiens, UniProt P14416); assay: Competitive radioligand binding assay, D2S (agonist radioligand); settings: compound at 10 μM
T6 construct: expressed in transfected cells; host or cells: HEK-293 cells (membrane fractions)
Procedure: as §1

[7] = target: T7, serotonin (5-HT) transporter (SERT) (Homo sapiens, UniProt P31645); assay: Competitive radioligand binding assay, 5-HT transporter (antagonist radioligand); settings: compound at 10 μM
T7 construct: expressed in transfected cells; host or cells: CHO cells (membrane fractions)
Procedure: as §1

[8] = target: T8, alpha2C adrenergic receptor (Alpha2C) (Homo sapiens, UniProt P18825); assay: Competitive radioligand binding assay, α2C (antagonist radioligand); settings: compound at 10 μM
T8 construct: expressed in transfected cells; host or cells: CHO cells (membrane fractions)
T8 sequence (P18825 1-462): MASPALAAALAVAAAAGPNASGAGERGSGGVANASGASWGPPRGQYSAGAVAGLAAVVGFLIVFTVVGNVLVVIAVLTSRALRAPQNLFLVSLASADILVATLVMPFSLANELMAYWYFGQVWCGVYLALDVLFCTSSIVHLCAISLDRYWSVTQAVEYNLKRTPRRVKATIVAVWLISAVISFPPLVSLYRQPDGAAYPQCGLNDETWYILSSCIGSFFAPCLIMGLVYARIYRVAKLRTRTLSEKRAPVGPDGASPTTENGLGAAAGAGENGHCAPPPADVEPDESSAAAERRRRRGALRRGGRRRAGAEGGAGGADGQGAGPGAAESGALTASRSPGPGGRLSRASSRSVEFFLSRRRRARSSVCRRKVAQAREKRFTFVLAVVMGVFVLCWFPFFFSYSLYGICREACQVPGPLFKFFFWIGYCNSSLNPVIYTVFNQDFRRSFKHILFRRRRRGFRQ
Procedure: as §1

[9] = 1st individual result, read-out: % inhibition of control specific binding, 1st
[10] = 2nd individual result, read-out: % inhibition of control specific binding, 2nd
[11] = mean, read-out: % inhibition of control specific binding, Mean
[12] = Dopamine transporter, 1st individual result, read-out: % inhibition of control specific binding, 1st
[13] = Dopamine transporter, 2nd individual result, read-out: % inhibition of control specific binding, 2nd
[14] = Dopamine transporter, mean, read-out: % inhibition of control specific binding, Mean
[15] = [3H]BTCP 4 nM, human recombinant (CHO cells), read-out: % Inhibition of Binding at Each Transporter or Receptor Target, DAT
[16] = D2L, 1st individual result, read-out: % inhibition of control specific binding, 1st
[17] = D2L, 2nd individual result, read-out: % inhibition of control specific binding, 2nd
[18] = D2L, mean, read-out: % inhibition of control specific binding, Mean
[19] = [3H]methyl-spiperone 0.3 nM, human recombinant (HEK-293 cells), read-out: % Inhibition of Binding at Each Transporter or Receptor Target, D2L
[20] = VMAT2 transporter, single value, read-out: % inhibition of control specific binding, 1st
[21] = [3H]dihydrotetrabenazine 10 nM, rat brain (minus cerebellum), read-out: % Inhibition of Binding at Each Transporter or Receptor Target, VMAT2
[22] = Norepinephrine transporter, 1st individual result, read-out: % inhibition of control specific binding, 1st
[23] = Norepinephrine transporter, 2nd individual result, read-out: % inhibition of control specific binding, 2nd
[24] = Norepinephrine transporter, mean, read-out: % inhibition of control specific binding, Mean
[25] = [3H]nisoxetine 1 nM, human recombinant (CHO cells), read-out: % Inhibition of Binding at Each Transporter or Receptor Target, NET
[26] = D2S, 1st individual result, read-out: % inhibition of control specific binding, 1st
[27] = D2S, 2nd individual result, read-out: % inhibition of control specific binding, 2nd
[28] = D2S, mean, read-out: % inhibition of control specific binding, Mean
[29] = [3H]7-OH-DPAT 1 nM, human recombinant (HEK-293 cells), read-out: % Inhibition of Binding at Each Transporter or Receptor Target, D2S
[30] = 5-HT transporter, 1st individual result, read-out: % inhibition of control specific binding, 1st
[31] = 5-HT transporter, 2nd individual result, read-out: % inhibition of control specific binding, 2nd
[32] = 5-HT transporter, mean, read-out: % inhibition of control specific binding, Mean
[33] = [3H]imipramine 2 nM, human recombinant (CHO cells), read-out: % Inhibition of Binding at Each Transporter or Receptor Target, SERT

T6 sequence (P14416 1-414 isoform P14416-2): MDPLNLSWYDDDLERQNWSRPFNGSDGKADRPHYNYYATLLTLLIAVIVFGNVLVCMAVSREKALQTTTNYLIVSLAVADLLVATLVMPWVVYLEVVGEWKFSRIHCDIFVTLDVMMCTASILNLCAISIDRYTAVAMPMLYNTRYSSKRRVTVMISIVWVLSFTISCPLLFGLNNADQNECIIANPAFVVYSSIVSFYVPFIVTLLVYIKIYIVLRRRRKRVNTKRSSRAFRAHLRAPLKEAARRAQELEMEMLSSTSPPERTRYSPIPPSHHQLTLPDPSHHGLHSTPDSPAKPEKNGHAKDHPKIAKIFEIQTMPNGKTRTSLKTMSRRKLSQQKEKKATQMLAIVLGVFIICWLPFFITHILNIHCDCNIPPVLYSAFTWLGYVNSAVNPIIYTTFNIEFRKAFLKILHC
T5 sequence (P23975 whole entry): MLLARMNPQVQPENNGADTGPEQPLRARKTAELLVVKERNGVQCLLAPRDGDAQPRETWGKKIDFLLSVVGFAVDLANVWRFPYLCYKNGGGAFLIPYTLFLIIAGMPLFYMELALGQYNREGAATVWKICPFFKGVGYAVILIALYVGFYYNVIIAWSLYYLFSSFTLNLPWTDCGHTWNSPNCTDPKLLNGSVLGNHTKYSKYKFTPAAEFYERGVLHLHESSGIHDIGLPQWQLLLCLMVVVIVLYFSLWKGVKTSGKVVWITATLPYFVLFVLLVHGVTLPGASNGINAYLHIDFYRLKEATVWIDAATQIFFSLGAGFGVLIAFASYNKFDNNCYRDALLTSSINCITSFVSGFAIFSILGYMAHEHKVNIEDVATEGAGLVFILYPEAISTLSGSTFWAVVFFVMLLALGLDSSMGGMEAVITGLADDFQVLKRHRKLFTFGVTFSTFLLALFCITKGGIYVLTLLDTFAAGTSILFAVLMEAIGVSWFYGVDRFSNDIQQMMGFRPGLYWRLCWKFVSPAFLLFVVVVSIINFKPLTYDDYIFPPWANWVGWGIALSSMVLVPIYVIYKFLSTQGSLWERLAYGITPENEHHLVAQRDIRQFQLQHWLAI
T7 sequence (P31645 whole entry): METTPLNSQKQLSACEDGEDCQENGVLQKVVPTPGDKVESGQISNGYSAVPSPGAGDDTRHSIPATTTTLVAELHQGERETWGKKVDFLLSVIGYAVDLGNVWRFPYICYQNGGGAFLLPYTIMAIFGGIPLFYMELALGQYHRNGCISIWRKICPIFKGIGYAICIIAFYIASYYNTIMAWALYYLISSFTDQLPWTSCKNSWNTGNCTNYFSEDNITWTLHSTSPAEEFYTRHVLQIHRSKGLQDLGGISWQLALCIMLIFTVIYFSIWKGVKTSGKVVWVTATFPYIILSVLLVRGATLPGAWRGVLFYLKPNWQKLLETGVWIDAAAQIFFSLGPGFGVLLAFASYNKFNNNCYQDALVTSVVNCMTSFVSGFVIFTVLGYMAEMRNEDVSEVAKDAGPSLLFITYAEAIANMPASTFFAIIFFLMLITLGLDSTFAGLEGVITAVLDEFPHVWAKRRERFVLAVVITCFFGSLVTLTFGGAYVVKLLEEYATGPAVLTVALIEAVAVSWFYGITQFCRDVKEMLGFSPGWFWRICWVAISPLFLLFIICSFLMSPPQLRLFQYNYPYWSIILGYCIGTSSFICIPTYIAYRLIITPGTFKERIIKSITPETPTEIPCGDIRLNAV
T3 sequence (P14416 whole entry): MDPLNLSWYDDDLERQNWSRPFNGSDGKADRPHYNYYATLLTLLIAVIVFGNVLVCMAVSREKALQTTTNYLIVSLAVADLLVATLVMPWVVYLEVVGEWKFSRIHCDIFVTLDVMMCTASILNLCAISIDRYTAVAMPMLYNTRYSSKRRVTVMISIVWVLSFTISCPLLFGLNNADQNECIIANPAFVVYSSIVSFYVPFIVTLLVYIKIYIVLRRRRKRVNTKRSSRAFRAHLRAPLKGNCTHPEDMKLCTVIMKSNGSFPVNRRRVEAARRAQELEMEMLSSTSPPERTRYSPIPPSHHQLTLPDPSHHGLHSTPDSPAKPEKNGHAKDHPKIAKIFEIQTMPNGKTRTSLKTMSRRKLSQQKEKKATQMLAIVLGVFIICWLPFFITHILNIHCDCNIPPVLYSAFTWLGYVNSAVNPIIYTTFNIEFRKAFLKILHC
T2 sequence (Q01959 whole entry): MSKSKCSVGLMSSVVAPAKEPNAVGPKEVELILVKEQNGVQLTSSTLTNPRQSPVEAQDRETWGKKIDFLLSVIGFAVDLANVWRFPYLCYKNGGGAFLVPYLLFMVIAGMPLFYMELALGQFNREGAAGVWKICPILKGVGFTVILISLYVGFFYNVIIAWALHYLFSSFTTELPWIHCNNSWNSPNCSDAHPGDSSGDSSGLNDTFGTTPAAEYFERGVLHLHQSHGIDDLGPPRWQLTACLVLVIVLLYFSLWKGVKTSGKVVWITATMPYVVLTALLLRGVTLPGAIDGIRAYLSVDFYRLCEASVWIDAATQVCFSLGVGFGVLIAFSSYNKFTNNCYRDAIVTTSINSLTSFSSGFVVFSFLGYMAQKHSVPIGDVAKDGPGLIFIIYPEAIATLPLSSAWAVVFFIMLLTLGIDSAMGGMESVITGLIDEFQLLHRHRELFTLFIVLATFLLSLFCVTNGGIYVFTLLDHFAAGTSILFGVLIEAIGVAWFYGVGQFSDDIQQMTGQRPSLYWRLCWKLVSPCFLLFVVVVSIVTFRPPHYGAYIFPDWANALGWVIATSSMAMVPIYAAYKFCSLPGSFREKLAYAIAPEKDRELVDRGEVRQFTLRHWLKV
T4 sequence (Q01827 whole entry): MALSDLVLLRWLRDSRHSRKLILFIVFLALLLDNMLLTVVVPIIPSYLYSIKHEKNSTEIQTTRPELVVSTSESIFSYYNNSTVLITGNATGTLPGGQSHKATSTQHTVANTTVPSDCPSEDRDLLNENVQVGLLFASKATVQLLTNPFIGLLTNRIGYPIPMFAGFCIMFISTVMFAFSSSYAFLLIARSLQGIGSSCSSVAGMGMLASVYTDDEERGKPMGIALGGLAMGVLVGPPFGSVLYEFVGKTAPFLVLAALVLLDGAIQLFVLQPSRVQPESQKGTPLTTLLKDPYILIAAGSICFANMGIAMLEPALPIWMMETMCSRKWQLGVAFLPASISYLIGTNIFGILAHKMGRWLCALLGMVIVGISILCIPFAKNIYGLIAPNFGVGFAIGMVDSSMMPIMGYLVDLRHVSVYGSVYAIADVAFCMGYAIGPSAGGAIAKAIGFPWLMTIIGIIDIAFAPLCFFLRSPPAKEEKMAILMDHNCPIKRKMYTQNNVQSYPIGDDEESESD

Structure (SMILES) | inhibition at 10 µM [1, 9] [%] | inhibition at 10 µM [1, 10] [%] | inhibition at 10 µM [1, 11] [%] | inhibition at 10 µM [2, 12] [%] | inhibition at 10 µM [2, 13] [%] | inhibition at 10 µM [2, 14] [%] | inhibition at 10 µM [2, 15] [%] | binding to the dopamine transporter (in words) [2] | inhibition at 10 µM [3, 16] [%] | inhibition at 10 µM [3, 17] [%] | inhibition at 10 µM [3, 18] [%] | inhibition at 10 µM [3, 19] [%] | inhibition at 10 µM [4, 20] [%] | inhibition at 10 µM [4, 21] [%] | inhibition at 10 µM [5, 22] [%] | inhibition at 10 µM [5, 23] [%] | inhibition at 10 µM [5, 24] [%] | inhibition at 10 µM [5, 25] [%] | inhibition at 10 µM [6, 26] [%] | inhibition at 10 µM [6, 27] [%] | also measured
NC(=O)OC[C@H](N)Cc1ccccc1 [APC, (R)-2-amino-3-phenylpropyl carbamate, reference compound] | 5.2 | 8.7 | 7 | 79.3 | 81.1 | 80.2 | 80.2 | substantial binding | -0.1 | 4.6 | 2.3 | 2.3 | 7 | 7 | 6.9 | 16 | 11.4 | 11.4 | 0.7 | 8.2 | inhibition at 10 µM [6, 28]: 4.4%; inhibition at 10 µM [6, 29]: 4.4%; inhibition at 10 µM [7, 30]: -6.3%; inhibition at 10 µM [7, 31]: -3.3%; inhibition at 10 µM [7, 32]: -4.8%; inhibition at 10 µM [7, 33]: -4.8%; inhibition at 10 µM [8, 9]: 4.1%; inhibition at 10 µM [8, 10]: 2.3%; inhibition at 10 µM [8, 11]: 3.2%
NC(=O)NC[C@H](N)Cc1ccccc1 [Compound 3, (R)-1-(2-Amino-3-phenylpropyl)urea hydrochloride] | 1.7 | 7.8 | 4.8 | 86.8 | 90.5 | 88.6 | 88.6 | substantial binding | -6.7 | 7.6 | 0.5 | 0.5 | 0 | 0 | 42.6 | 23 | 32.8 | 32.8 | -1.6 | 0.2 | inhibition at 10 µM [6, 28]: -0.7%; inhibition at 10 µM [6, 29]: -0.7%; inhibition at 10 µM [7, 30]: -2.4%; inhibition at 10 µM [7, 31]: -0.4%; inhibition at 10 µM [7, 32]: -1.4%; inhibition at 10 µM [7, 33]: -1.4%; inhibition at 10 µM [8, 9]: 8.6%; inhibition at 10 µM [8, 10]: 22.6%; inhibition at 10 µM [8, 11]: 15.6%
